Test results reported in patent US10696692B2, “Amido-benzyl sulfone and sulfoxide derivates” (Forma TM, LLC, priority 2012, dated 2020).
Where two headings read alike, the source gives them in different places.

Legend:
A2780 cells = experiment: Assay 2: In-Vitro Cell Proliferation Assay (A2780 cells, SRB readout, 72 hours); format: cell-based; conditions: read-out: Cell Proliferation (IC50);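 note: viable cells counted via sulforhodamine B staining, absorbance at 570 nm, after 72 h exposure at 37 °C, DMSO 0.1% as control, media-only background subtracted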
NAMPT = NAMPT (Homo sapiens (Human), UniProt P43490); experiment: Assay 1: Biochemical Inhibition Assay (NAMPT enzymatic reaction, NMN quantified by mass spectrometry);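 note: recombinant His-tagged human NAMPT preincubated with compound 15 min, then reacted 30 min at rt with 1 µM NAM, 100 µM PRPP, 2.5 mM ATP, NMN product read by RapidFire MS, normalized to L-Cystathionine internal standard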
[1] = Homo sapiens, A2780, 72 h, A2780 cells, 72 hours, SRB

Chain of NAMPT (P43490 whole entry): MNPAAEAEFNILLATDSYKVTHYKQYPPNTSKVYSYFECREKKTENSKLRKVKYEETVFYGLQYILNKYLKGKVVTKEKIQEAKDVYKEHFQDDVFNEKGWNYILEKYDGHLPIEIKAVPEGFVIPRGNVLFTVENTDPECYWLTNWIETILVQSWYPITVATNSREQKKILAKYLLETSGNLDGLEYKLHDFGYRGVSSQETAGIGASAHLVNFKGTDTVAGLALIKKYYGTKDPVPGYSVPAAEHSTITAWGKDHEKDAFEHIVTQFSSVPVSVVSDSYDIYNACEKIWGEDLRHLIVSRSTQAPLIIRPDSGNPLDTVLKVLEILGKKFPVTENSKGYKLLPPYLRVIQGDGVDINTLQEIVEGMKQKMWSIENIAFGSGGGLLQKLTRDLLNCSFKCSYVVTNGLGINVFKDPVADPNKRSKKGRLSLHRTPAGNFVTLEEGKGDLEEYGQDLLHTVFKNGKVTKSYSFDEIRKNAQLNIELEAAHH

IC50 (A2780 cells; [1]) [nM] | IC50 (NAMPT; read-out: Biochemical (IC50)) [nM] | IC50 (A2780 cells; A2780 cells, 72 hours, SRB) [nM] | SMILES | IC50 (A2780 cells; Homo sapiens, A2780, 72 h) [nM] | IC50 (NAMPT; Biochemical (IC50)) [nM]
39.1 | 43.7 | – | CC(C)(C)OC(=O)N1CC[C@@H]2CN(S(=O)(=O)c3ccc(CNC(=O)c4ccc5nccn5c4)cc3)C[C@@H]21 (racemic) [Example 136, cis-5-(4-{[(Imidazo[1,2-a]pyridine-6-carbonyl)-amino]-methyl}-benzenesulfonyl)-hexahydropyrrolo[3,4-b]pyrrole-1-carboxylic acid tert-butyl ester] | – | –
4.23 | 10.5 | – | CC(C)(C)OC(=O)N1CC2CN(S(=O)(=O)c3ccc(CNC(=O)c4ccc5nccn5c4)cc3)CC2C1 (racemic) [Example 137, cis-5-(4-{[(Imidazo[1,2-a]pyridine-6-carbonyl)-amino]-methyl}-benzenesulfonyl)-hexahydro-pyrrolo[3,4-c]pyrrole-2-carboxylic acid tert-butyl ester] | – | –
10.3 | 14.5 | – | C[C@@H]1CN(S(=O)(=O)c2ccc(CNC(=O)c3ccc4nccn4c3)cc2)C[C@H]1O (racemic) [Example 139, trans-Imidazo[1,2-a]pyridine-6-carboxylic acid 4-(3-hydroxy-4-methyl-pyrrolidine-1-sulfonyl)-benzylamide] | – | –
– | – | – | O=C(NCc1ccc(S(=O)(=O)N2C3COCC2CC(O)C3)cc1)c1ccc2nccn2c1 (racemic) [Example 140, cis-Imidazo[1,2-a]pyridine-6-carboxylic acid 4-(7-hydroxy-3-oxa-9-aza-bicyclo[3.3.1]nonane-9-sulfonyl)-benzylamide] | 14.1 | 46.4
9.5 | 14.8 | – | O=C(NCc1ccc(S(=O)(=O)N2C[C@@H]3C[C@H]2CC3(F)F)cc1)c1ccc2nccn2c1 (racemic) [Example 141, cis-Imidazo[1,2-a]pyridine-6-carboxylic acid 4-(5,5-difluoro-2-aza-bicyclo[2.2.1]heptane-2-sulfonyl)-benzylamide] | – | –
28.6 | 113 | – | CN1CC2CN(S(=O)(=O)c3ccc(CNC(=O)c4ccc5nccn5c4)cc3)CC(C1)O2 (racemic) [Example 142, cis-Imidazo[1,2-a]pyridine-6-carboxylic acid 4-(7-methyl-9-oxa-3,7-diaza-bicyclo[3.3.1]nonane-3-sulfonyl)-benzylamide] | – | –
20.4 | 100 | – | CN1CC2CCN(S(=O)(=O)c3ccc(CNC(=O)c4ccc5nccn5c4)cc3)C2C1 (racemic) [Example 143, cis-Imidazo[1,2-a]pyridine-6-carboxylic acid 4-(5-methyl-hexahydro-pyrrolo[3,4-b]pyrrole-1-sulfonyl)-benzylamide] | – | –
9.6 | 54 | – | CN1CCC2CN(S(=O)(=O)c3ccc(CNC(=O)c4ccc5nccn5c4)cc3)CC21 (racemic) [Example 144, cis-Imidazo[1,2-a]pyridine-6-carboxylic acid 4-(1-methyl-hexahydro-pyrrolo[3,4-b]pyrrole-5-sulfonyl)-benzylamide] | – | –
12.5 | 13.7 | – | O=C(NCc1ccc(S(=O)(=O)N2C[C@@H]3CC(F)(F)[C@@H]3C2)cc1)c1ccc2nccn2c1 (racemic) [Example 147, cis-Imidazo[1,2-a]pyridine-6-carboxylic acid 4-(6,6-difluoro-3-aza-bicyclo[3.2.0]heptane-3-sulfonyl)-benzylamide] | – | –
18.5 | 33.1 | – | O=C(NCc1ccc(S(=O)(=O)C2CCCOC2)cc1)c1cc2cnccc2[nH]1 (racemic) [Example 154, 1H-Pyrrolo[3,2-c]pyridine-2-carboxylic acid 4-(tetrahydro-pyran-3-sulfonyl)-benzylamide] | – | –
176 | 219 | – | O=C(NCc1ccc(S(=O)(=O)C2CCCOC2)cc1)c1cnc2[nH]ncc2c1 (racemic) [Example 155, 1H-Pyrazolo[3,4-b]pyridine-5-carboxylic acid 4-(tetrahydro-pyran-3-sulfonyl)-benzylamide] | – | –
47.2 | 52.1 | – | CC1(O)CCN(S(=O)(=O)c2ccc(CNC(=O)c3ccc4nccn4c3)cc2)C1 (racemic) [Example 161, Imidazo[1,2-a]pyridine-6-carboxylic acid 4-(3-hydroxy-3-methyl-pyrrolidine-1-sulfonyl)-benzylamide] | – | –
– | – | – | CN1C2COCC1CN(S(=O)(=O)c1ccc(CNC(=O)c3ccc4nccn4c3)cc1)C2 (racemic) [Example 162, cis-Imidazo[1,2-a]pyridine-6-carboxylic acid 4-(9-methyl-3-oxa-7,9-diaza-bicyclo[3.3.1]nonane-7-sulfonyl)-benzylamide] | 59.8 | 122
58.1 | 81.5 | – | CC(=O)N1C[C@@H]2C[C@H]1CN2S(=O)(=O)c1ccc(CNC(=O)c2ccc3nccn3c2)cc1 (racemic) [Example 163, cis-Imidazo[1,2-a]pyridine-6-carboxylic acid 4-(5-acetyl-2,5-diaza-bicyclo[2.2.1]heptane-2-sulfonyl)-benzylamide] | – | –
12.4 | 8.1 | – | O=C(NCc1ccc(S(=O)(=O)N2CC3CC2CC3F)cc1)c1ccc2nccn2c1 (racemic) [Example 164, cis-Imidazo[1,2-alpyridine-6-carboxylic acid 4-(5-fluoro-2-aza-bicyclo[2.2.1]heptane-2-sulfonyl)-benzylamide] | – | –
22 | 95.8 | – | CN1C[C@H]2C[C@@H](C1)N(S(=O)(=O)c1ccc(CNC(=O)c3ccc4nccn4c3)cc1)C2 (racemic) [Example 165, cis-Imidazo[1,2-a]pyridine-6-carboxylic acid 4-(3-methyl-3,6-diaza-bicyclo[3.2.1]octane-6-sulfonyl)-benzylamide] | – | –
9.6 | 17.2 | – | O=C(NCc1ccc(S(=O)(=O)N2CC[C@H]3C[C@H]32)cc1)c1ccc2nccn2c1 (racemic) [Example 166, cis-Imidazo[1,2-a]pyridine-6-carboxylic acid 4-(2-aza-bicyclo[3.1.0]hexane-2-sulfonyl)-benzylamide] | – | –
8.8 | 23.7 | – | O=C(NCc1ccc(S(=O)(=O)N2CCOC3(CCOC3)C2)cc1)c1ccc2nccn2c1 (racemic) [Example 167, Imidazo[1,2-a]pyridine-6-carboxylic acid 4-(2,6-dioxa-9-aza-spiro[4.5]decane-9-sulfonyl)-benzylamide] | – | –
50.3 | 30.4 | – | O=C(NCc1ccc(S(=O)(=O)C2CCCOC2)cc1)c1cc2ccncc2o1 (racemic) [Example 168, Furo[2,3-c]pyridine-2-carboxylic acid 4-(tetrahydro-pyran-3-sulfonyl)-benzylamide] | – | –
19.9 | 32.9 | – | O=C(NCc1ccc(S(=O)(=O)C2CCCOC2)cc1)c1ccc2nccn2c1 (racemic) [Example 169, Imidazo[1,2-a]pyridine-6-carboxylic acid 4-(tetrahydro-pyran-3-sulfonyl)-benzylamide] | – | –
354 | 211 | – | O=C(NCc1ccc(S(=O)(=O)N2C[C@@H]3C[C@H]2CO3)cc1)c1cnc2[nH]ncc2c1 (racemic) [Example 172, cis-1H-Pyrazolo[3,4-b]pyridine-5-carboxylic acid 4-(2-oxa-5-aza-bicyclo[2.2.1]heptane-5-sulfonyl)-benzylamide] | – | –
22.7 | 37.9 | – | O=C(NCc1ccc(S(=O)(=O)N2C[C@H]3CCC(F)(F)[C@H]3C2)cc1)c1cnc2[nH]ncc2c1 (racemic) [Example 176, cis-1H-Pyrazolo[3,4-b]pyridine-5-carboxylic acid 4-(4,4-difluoro-hexahydro-cyclopenta[c]pyrrole-2-sulfonyl)-benzylamide] | – | –
105 | 20.3 | – | O=C(NCc1ccc(S(=O)(=O)N2CC3CC(F)(F)CC3C2)cc1)c1cnc2[nH]ncc2c1 (racemic) [Example 177, cis-1H-Pyrazolo[3,4-b]pyridine-5-carboxylic acid 4-(5,5-difluoro-hexahydro-cyclopenta[c]pyrrole-2-sulfonyl)-benzylamide] | – | –
172 | 133 | – | O=C(NCc1ccc(S(=O)(=O)N2C[C@@H]3CCO[C@@H]3C2)cc1)c1cnc2[nH]ncc2c1 (racemic) [Example 178, cis-1H-Pyrazolo[3,4-b]pyridine-5-carboxylic acid 4-(hexahydro-furo[2,3-c]pyrrole-5-sulfonyl)-benzylamide] | – | –
31.1 | 7.6 | – | CC(C)CN1CCC([S+]([O-])c2ccc(CNC(=O)c3cnc4nccn4c3)cc2)CC1 (racemic) [Example 179, Imidazo[1,2-a]pyrimidine-6-carboxylic acid 4-(1-isobutyl-piperidine-4-sulfinyl)-benzylamide] | – | –
23 | 130 | – | CC(C)CN1CCC([S+]([O-])c2ccc(CNC(=O)c3cnc4[nH]ncc4c3)cc2)CC1 (racemic) [Example 181, 1H-Pyrazolo[3,4-b]pyridine-5-carboxylic acid 4-(1-isobutyl-piperidine-4-sulfinyl)-benzylamide] | – | –
5.6 | 26.3 | – | CC(C)CN1CCC([S+]([O-])c2ccc(CNC(=O)c3cc4cnccc4[nH]3)cc2)CC1 (racemic) [Example 182, 1H-Pyrrolo[3,2-c]pyridine-2-carboxylic acid 4-(l-isobutyl-piperidine-4-sulfinyl)-benzylamide] | – | –
0.76 | 8.99 | – | CC(C)(C)OC(=O)N1CCCC12CCCN(S(=O)(=O)c1ccc(CNC(=O)c3ccc4nccn4c3)cc1)CC2 (racemic) [Example 183] | – | –
5.8 | 14.2 | – | CC(C)CN1CCC([S+]([O-])c2ccc(CNC(=O)c3ccc4nccn4c3)cc2)CC1 (racemic) [Example 187, N-(4-(1-isobutylpiperidin-4-ylsulfinyl)benzyl)H-imidazo[1,2-a]pyridine-6-carboxamide] | – | –
– | 3 | 0.8 | O=C(NCc1ccc(S(=O)(=O)N2CC3CCC(F)(F)C3C2)cc1)c1ccc2nccn2c1 (single isomer, unassigned) [Example 73, cis-Imidazo[1,2-a]pyridine-6-carboxylic acid 4-(4,4-difluoro-hexahydro-cyclopenta[c]pyrrole-2-sulfonyl)-benzylamide] | – | –
